Test results taken from ChEMBL document CHEMBL2311511, “Dipeptide cis-cyclo(Leucyl-Tyrosyl) produced by sponge associated Penicillium sp. F37 inhibits biofilm formation of the pathogenic Staphylococcus epidermidis” (Bioorg Med Chem Lett, 2013).
Active and inactive are the calls of the source. No cut-off for these calls is given here.

Key:
[1] = test system: Staphylococcus epidermidis; test: Inhibition of Staphylococcus epidermidis ATCC 35984 biofilm formation at 1 mg/ml after 24 hrs by scanning electron microscopy; type: functional, organism-based
[2] = test system: Staphylococcus epidermidis; test: Inhibition of Staphylococcus epidermidis ATCC 35984 biofilm formation at 0.125 mg/ml; type: functional, organism-based
[3] = test system: Staphylococcus epidermidis; test: Toxicity in Staphylococcus epidermidis ATCC 35984 assessed as growth inhibition at 0.25 to 1 mg/ml; type: organism-based; settings: in vivo
[4] = test system: Staphylococcus epidermidis; test: Inhibition of Staphylococcus epidermidis ATCC 35984 biofilm formation at 1 mg/ml; type: functional
[5] = test system: Staphylococcus epidermidis; test: Inhibition of Staphylococcus epidermidis ATCC 35984 biofilm formation at 0.5 mg/ml; type: functional
[6] = test system: Staphylococcus epidermidis; test: Inhibition of Staphylococcus epidermidis ATCC 35984 biofilm formation at 0.25 mg/ml; type: functional

With `CC(C)C[C@@H]1NC(=O)[C@H](Cc2ccc(O)cc2)NC1=O` the inhibition [1] was “Active”, the Activity [2] was “inactive” and the Activity [3] was “Non-toxic”. The inhibition at 1000 µg/mL [4] was 85%, the inhibition at 500 µg/mL [5] was 65% and the inhibition at 250 µg/mL [6] was 60%.
